Measured values published in ChEMBL document CHEMBL1681726, “Discovery of orally available tetrahydroquinoline-based glucocorticoid receptor agonists” (Bioorg Med Chem Lett, 2011).

Columns and labels:
[1] = Metabolic stability in CD-1 […] liver microsomes by HPLC-MS/MS; format: ADME, Microsome; conditions: CD-1, liver microsomes
[2] = Metabolic stability in human liver microsomes by HPLC-MS/MS; format: ADME, Microsome
[3] = target: T1, Glucocorticoid receptor (Homo sapiens, UniProt P04150); assay: Displacement of radiolabeled Dexamethasone from GR
T1 sequence (P04150 whole entry): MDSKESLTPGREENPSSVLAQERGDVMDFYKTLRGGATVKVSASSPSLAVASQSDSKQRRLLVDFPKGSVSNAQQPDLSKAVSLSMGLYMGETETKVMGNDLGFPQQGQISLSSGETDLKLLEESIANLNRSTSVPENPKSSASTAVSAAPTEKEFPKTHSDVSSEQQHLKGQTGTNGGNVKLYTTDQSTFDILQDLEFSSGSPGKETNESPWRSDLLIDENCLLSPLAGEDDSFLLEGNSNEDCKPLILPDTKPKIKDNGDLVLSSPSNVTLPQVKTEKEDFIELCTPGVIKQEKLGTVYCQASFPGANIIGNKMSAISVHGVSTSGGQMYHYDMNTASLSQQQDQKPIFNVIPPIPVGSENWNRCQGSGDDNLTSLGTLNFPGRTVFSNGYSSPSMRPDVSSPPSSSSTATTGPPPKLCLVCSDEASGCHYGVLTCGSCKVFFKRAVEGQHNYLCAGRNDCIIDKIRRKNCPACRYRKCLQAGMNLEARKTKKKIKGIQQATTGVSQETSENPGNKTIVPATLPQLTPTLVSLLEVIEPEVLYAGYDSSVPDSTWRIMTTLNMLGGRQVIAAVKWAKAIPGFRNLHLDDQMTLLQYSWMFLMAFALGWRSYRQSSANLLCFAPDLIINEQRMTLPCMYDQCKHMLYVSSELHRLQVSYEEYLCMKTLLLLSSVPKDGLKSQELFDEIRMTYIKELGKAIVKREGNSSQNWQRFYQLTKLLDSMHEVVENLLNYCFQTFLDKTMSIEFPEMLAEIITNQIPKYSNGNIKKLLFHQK

[4] = target: T1, Glucocorticoid receptor; assay: Agonist activity at GR expressed in african green monkey CV1 cells transfected with luciferase gene linked to MMTV promoter assessed as induction of luciferase transactivation activity relative to Dexamethasone; format: functional, cell-based, CV-1
[5] = target: T1, Glucocorticoid receptor; assay: Agonist activity at GR expressed in IL-1beta- and TNFalpha-stimulated HepG2 cells assessed as inhibition of NFKB- or AP-1 mediated E-selectin transcription by luciferase reporter gene assay relative to Dexamethasone; format: functional, cell-based
[6] = target: T1, Glucocorticoid receptor; assay: Agonist activity at human GR expressed in NHDF cells assessed as inhibition of IL-6 production by ELISA relative to Dexamethasone; format: functional, cell-based
[7] = target: T2, Progesterone receptor (Homo sapiens, UniProt P06401); assay: Binding affinity to PR
T2 sequence (P06401 whole entry): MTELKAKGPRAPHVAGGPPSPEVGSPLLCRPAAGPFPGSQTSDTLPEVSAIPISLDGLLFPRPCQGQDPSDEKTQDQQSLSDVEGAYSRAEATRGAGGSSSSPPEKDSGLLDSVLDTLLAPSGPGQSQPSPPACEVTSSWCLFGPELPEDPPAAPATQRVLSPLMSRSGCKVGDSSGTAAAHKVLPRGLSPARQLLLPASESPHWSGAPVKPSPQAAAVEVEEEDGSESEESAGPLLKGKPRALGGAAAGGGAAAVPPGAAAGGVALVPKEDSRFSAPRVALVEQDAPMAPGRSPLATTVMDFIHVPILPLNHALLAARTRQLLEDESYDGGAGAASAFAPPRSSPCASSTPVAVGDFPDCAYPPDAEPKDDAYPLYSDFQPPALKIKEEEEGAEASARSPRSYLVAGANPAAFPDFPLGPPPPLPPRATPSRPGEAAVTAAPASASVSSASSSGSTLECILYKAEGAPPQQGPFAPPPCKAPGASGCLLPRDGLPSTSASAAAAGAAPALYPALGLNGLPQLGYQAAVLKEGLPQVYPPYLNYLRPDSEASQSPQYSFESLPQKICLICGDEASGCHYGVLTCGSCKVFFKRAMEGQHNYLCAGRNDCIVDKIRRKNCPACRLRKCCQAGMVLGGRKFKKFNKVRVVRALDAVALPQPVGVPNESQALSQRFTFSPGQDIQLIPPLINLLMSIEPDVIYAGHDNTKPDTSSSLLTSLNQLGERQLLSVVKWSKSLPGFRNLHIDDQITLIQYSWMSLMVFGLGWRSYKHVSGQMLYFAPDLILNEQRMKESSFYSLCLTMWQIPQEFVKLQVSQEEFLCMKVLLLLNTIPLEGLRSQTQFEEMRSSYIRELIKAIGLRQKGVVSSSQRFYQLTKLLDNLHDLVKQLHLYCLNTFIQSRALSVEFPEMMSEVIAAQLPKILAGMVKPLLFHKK

[8] = Selectivity ratio of Ki for GR to Ki for PR

| SMILES | half-life [1] | half-life [2] | Ki [3] | EC50 [4] | IC50 [5] | IC50 [6] | Ki [7] | Ratio Ki [8] |
| --- | --- | --- | --- | --- | --- | --- | --- | --- |
| Cc1cc(-c2cccc3cc[nH]c23)cc2c1NC(C)(C)[C@H](O)[C@H]2C (racemic) |  |  | 9 nM | 108 nM | 21 nM | > 1000 nM |  |  |
| CCc1c(-c2cccc3cc[nH]c23)cc(C)c2c1[C@H](C)[C@@H](O)C(C)(C)N2 (racemic) |  |  | 11.7 nM | 16 nM | 15 nM | > 1000 nM |  |  |
| Cc1cc(-c2cccc3cc[nH]c23)c(/C=N/O)c2c1NC(C)(C)[C@H](O)[C@H]2C (racemic) |  |  | 319 nM | 105 nM | 11 nM | > 1000 nM |  |  |
| CO/N=C/c1c(-c2cccc3cc[nH]c23)cc(C)c2c1[C@H](C)[C@@H](O)C(C)(C)N2 (racemic) |  |  | 6.9 nM | 0.4 nM | 1.7 nM | 4.2 nM |  |  |
| CCO/N=C/c1c(-c2cccc3cc[nH]c23)cc(C)c2c1[C@H](C)[C@@H](O)C(C)(C)N2 (racemic) |  |  | 1.5 nM | 0.2 nM | 0.9 nM | 3.4 nM |  |  |
| Cc1cc(-c2cccc3cc[nH]c23)c(/C=N/OC(C)(C)C)c2c1NC(C)(C)[C@H](O)[C@H]2C (racemic) |  |  | 6 nM | 34 nM | 5.5 nM | 3.8 nM |  |  |
| Cc1cc(-c2cccc3cc[nH]c23)c(/C=N/OCc2ccccc2)c2c1NC(C)(C)[C@H](O)[C@H]2C (racemic) |  |  | 3.5 nM | 3.7 nM | 3.1 nM | 14.4 nM |  |  |
| Cc1cc(-c2cccc3cc[nH]c23)c(/C=C/C#N)c2c1NC(C)(C)[C@H](O)[C@H]2C (racemic) |  |  | 16.6 nM | 5.7 nM | 6.5 nM | 16 nM |  |  |
| CC(=O)/C=C/c1c(-c2cccc3cc[nH]c23)cc(C)c2c1[C@H](C)[C@@H](O)C(C)(C)N2 (racemic) |  |  | 10.4 nM | 112 nM | 7.8 nM | > 1000 nM |  |  |
| Cc1c(-c2cccc3cc[nH]c23)cc2c(c1C)NC(C)(C)[C@H](O)[C@H]2C (racemic) |  |  | 38.3 nM | 205 nM | 42 nM | > 1000 nM |  |  |
| Cc1c2c(cc(-c3cccc4cc[nH]c34)c1C(F)(F)F)[C@H](C)[C@@H](O)C(C)(C)N2 (racemic) |  |  | 106 nM | > 1000 nM | > 1000 nM | > 1000 nM |  |  |
| C=Cc1c(-c2cccc3cc[nH]c23)cc2c(c1C)NC(C)(C)[C@H](O)[C@H]2C (racemic) |  |  | 3.1 nM | 18 nM | 13 nM | > 1000 nM |  |  |
| C[C@H]1c2c(F)c(-c3cccc4cc[nH]c34)c(F)c(F)c2NC(C)(C)[C@@H]1O (racemic) |  |  | 5 nM | 16 nM | 3.8 nM | 19 nM |  |  |

Further lines, results first:

| half-life [1] | half-life [2] | Ki [3] | EC50 [4] | IC50 [5] | IC50 [6] | Ki [7] | Ratio Ki [8] | SMILES |
| --- | --- | --- | --- | --- | --- | --- | --- | --- |
| 3.3 min | 4.7 min |  |  |  |  |  |  | Cc1cc(-c2cccc3cc[nH]c23)c(Cl)c2c1NC(C)(C)[C@H](O)[C@H]2C (racemic) |
|  |  | 2.3 nM | 56 nM | 5.9 nM | 7.1 nM |  |  | Cc1cc(-c2cccc3cc[nH]c23)c(F)c2c1NC(C)(C)[C@H](O)[C@H]2C (racemic) |
|  |  | 1.2 nM | 0.9 nM | 4.7 nM | 9.3 nM |  |  | Cc1cc(-c2cccc3cc[nH]c23)c(C)c2c1NC(C)(C)[C@H](O)[C@H]2C (racemic) |
|  |  | 19.6 nM | 40 nM | > 1000 nM | > 1000 nM |  |  | C=Cc1c(-c2cccc3cc[nH]c23)cc(C)c2c1[C@H](C)[C@@H](O)C(C)(C)N2 (racemic) |
| 13 min | 13 min | 1.3 nM | 9.6 nM | 5.3 nM | 16 nM |  |  | Cc1cc(-c2cccc3cc[nH]c23)c(C#N)c2c1NC(C)(C)[C@H](O)[C@H]2C (racemic) |
| 25 min | 21 min | 1.8 nM | 36 nM | 21 nM | 26 nM | 190 nM | > 100 | Cc1c(Cl)c(-c2cccc3cc[nH]c23)cc2c1NC(C)(C)[C@H](O)[C@H]2C (racemic) |
| 16 min | 17 min | 0.9 nM | 40 nM | 1.7 nM | 4.1 nM |  |  | Cc1c(F)c(-c2cccc3cc[nH]c23)cc2c1NC(C)(C)[C@H](O)[C@H]2C (racemic) |
| 3.8 min | 15 min | 8 nM | 89 nM | 17 nM | 14 nM |  |  | C[C@H]1c2c(Cl)c(-c3cccc4cc[nH]c34)cc(F)c2NC(C)(C)[C@@H]1O (racemic) |
|  |  | 2.4 nM | 11 nM | 7.7 nM | 20 nM |  |  | C[C@H]1c2cc(-c3cccc4cc[nH]c34)c(F)c(F)c2NC(C)(C)[C@@H]1O (racemic) |
|  |  | 1 nM | 1.3 nM | 3.9 nM | 16 nM |  |  | C[C@H]1c2c(F)c(-c3cccc4cc[nH]c34)c(F)c(Cl)c2NC(C)(C)[C@@H]1O (racemic) |
|  |  | 157 nM | 480 nM | 301 nM | > 1000 nM |  |  | C[C@H]1c2c(cc(Cl)c(-c3cccc4cc[nH]c34)c2Cl)NC(C)(C)[C@@H]1O (racemic) |
